Measurements as given in ChEMBL document CHEMBL3817735 (J Med Chem, 2016).

What was measured:
[1] = tested on: Influenza A virus; assay: Antiviral activity against Influenza A virus (A/duck/Tsukuba/67/2005(H1N1)) infected in MDCK cells preincubated for 1 hr followed by infection measured after 19 to 20 hrs by galactosidase-based fluorescence assay and peroxidase-based chromogenic assay; type: functional, organism-based
[2] = tested on: Influenza A virus; assay: Antiviral activity against Influenza A virus (A/Aichi/75/2008(H3N2)) infected in dog AX4 cells preincubated for 1 hr followed by infection measured after 19 to 20 hrs by galactosidase-based fluorescence assay and peroxidase-based chromogenic assay; type: functional, organism-based
[3] = tested on: Influenza A virus; assay: Antiviral activity against Influenza A virus (A/duck/Shiga/8/2004(H4N6)) infected in MDCK cells preincubated for 1 hr followed by infection measured after 19 to 20 hrs by galactosidase-based fluorescence assay and peroxidase-based chromogenic assay; type: functional, organism-based
[4] = tested on: Influenza A virus; assay: Antiviral activity against Influenza A virus (A/duck/Tsukuba/28/2005(H6N2)) infected in MDCK cells preincubated for 1 hr followed by infection measured after 19 to 20 hrs by galactosidase-based fluorescence assay and peroxidase-based chromogenic assay; type: functional, organism-based
[5] = tested on: Influenza A virus; assay: Antiviral activity against Influenza A virus A/Kitakyushu/10/06(H1N1) infected in dog AX4 cells preincubated for 1 hr followed by infection measured after 19 to 20 hrs by galactosidase-based fluorescence assay and peroxidase-based chromogenic assay; type: functional, organism-based
[6] = tested on: Influenza A virus; assay: Antiviral activity against Influenza A virus (A/duck/Tsukuba/394/2005(H5N3)) infected in MDCK cells preincubated for 1 hr followed by infection measured after 19 to 20 hrs by galactosidase-based fluorescence assay and peroxidase-based chromogenic assay; type: functional, organism-based
[7] = tested on: Influenza A virus; assay: Antiviral activity against Influenza A virus A/duck/Chiba/13/06(H12N5) infected in MDCK cells preincubated for 1 hr followed by infection measured after 19 to 20 hrs by galactosidase-based fluorescence assay and peroxidase-based chromogenic assay; type: functional, organism-based
[8] = tested on: Influenza A virus; assay: Antiviral activity against Influenza A virus (A/California/04/2009(H1N1)) infected in dog AX4 cells preincubated for 1 hr followed by infection measured after 19 to 20 hrs by galactosidase-based fluorescence assay and peroxidase-based chromogenic assay; type: functional, organism-based
[9] = tested on: Influenza A virus; assay: Antiviral activity against Influenza A virus (A/duck/Tsukuba/700/2007(H7N7)) infected in MDCK cells preincubated for 1 hr followed by infection measured after 19 to 20 hrs by galactosidase-based fluorescence assay and peroxidase-based chromogenic assay; type: functional, organism-based
[10] = tested on: Influenza A virus; assay: Antiviral activity against Influenza A virus (A/Narita/1/2009(H1N1)) infected in dog AX4 cells preincubated for 1 hr followed by infection measured after 19 to 20 hrs by galactosidase-based fluorescence assay and peroxidase-based chromogenic assay; type: functional, organism-based
[11] = tested on: Influenza A virus; assay: Antiviral activity against Influenza A virus (A/Aichi/102/2008(H3N2)) infected in dog AX4 cells preincubated for 1 hr followed by infection measured after 19 to 20 hrs by galactosidase-based fluorescence assay and peroxidase-based chromogenic assay; type: functional, organism-based
[12] = tested on: Influenza A virus; assay: Antiviral activity against Influenza A virus A/duck/Tsukuba/441/05(H11N9) infected in MDCK cells preincubated for 1 hr followed by infection measured after 19 to 20 hrs by galactosidase-based fluorescence assay and peroxidase-based chromogenic assay; type: functional, organism-based
[13] = tested on: Influenza A virus; assay: Antiviral activity against Influenza A virus (A/mallard/Hokkaido/24/2009(H5N1)) infected in MDCK cells preincubated for 1 hr followed by infection measured after 19 to 20 hrs by galactosidase-based fluorescence assay and peroxidase-based chromogenic assay; type: functional, organism-based
[14] = tested on: Influenza A virus; assay: Antiviral activity against Influenza A virus A/Yamaguchi/20/06(H1N1) infected in dog AX4 cells preincubated for 1 hr followed by infection measured after 19 to 20 hrs by galactosidase-based fluorescence assay and peroxidase-based chromogenic assay; type: functional, organism-based
[15] = tested on: Influenza A virus; assay: Antiviral activity against Influenza A virus (A/duck/Tsukuba/28/2006(H3N8)) infected in MDCK cells preincubated for 1 hr followed by infection measured after 19 to 20 hrs by galactosidase-based fluorescence assay and peroxidase-based chromogenic assay; type: functional, organism-based
[16] = tested on: Influenza A virus; assay: Antiviral activity against Influenza A virus (A/duck/Tsukuba/20/2007(H8N4)) infected in MDCK cells preincubated for 1 hr followed by infection measured after 19 to 20 hrs by galactosidase-based fluorescence assay and peroxidase-based chromogenic assay; type: functional, organism-based
[17] = molecular target: T1, Sialidase-4 (Homo sapiens, UniProt Q8WWR8); assay: Inhibition of human Neu4 expressed in HEK293T cells using 4MU-Neu5Ac as substrate incubated for 30 mins by HPLC analysis; type: cell-based, HEK-293T
T1 sequence (Q8WWR8 whole entry): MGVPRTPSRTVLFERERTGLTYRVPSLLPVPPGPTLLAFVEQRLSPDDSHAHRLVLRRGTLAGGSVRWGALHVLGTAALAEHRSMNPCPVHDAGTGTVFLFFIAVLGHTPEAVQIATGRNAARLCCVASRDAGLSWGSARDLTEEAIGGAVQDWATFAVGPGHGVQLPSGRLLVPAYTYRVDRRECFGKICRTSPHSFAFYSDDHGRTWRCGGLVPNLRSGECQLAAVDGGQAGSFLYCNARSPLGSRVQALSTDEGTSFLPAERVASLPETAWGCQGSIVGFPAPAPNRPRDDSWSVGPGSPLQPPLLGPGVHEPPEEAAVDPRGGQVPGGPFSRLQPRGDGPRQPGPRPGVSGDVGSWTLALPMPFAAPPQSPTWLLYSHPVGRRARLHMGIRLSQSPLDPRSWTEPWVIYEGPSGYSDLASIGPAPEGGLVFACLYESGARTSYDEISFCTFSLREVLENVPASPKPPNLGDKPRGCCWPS

[18] = Cytotoxicity against dog AX4 cells at 0.064 to 1000 uM incubated for 24 hrs by cell counting analysis; type: cell-based, Canis lupus familiaris; settings: ax4, 24 h
[19] = molecular target: T1, Sialidase-4; assay: Inhibition of human Neu4 expressed in HEK293T cells using GM3 as substrate incubated for 30 mins by HPLC analysis; type: cell-based, HEK-293T
[20] = molecular target: Sialidase-1 (Homo sapiens, UniProt Q99519); assay: Inhibition of human Neu1 expressed in HEK293T cells using 4MU-Neu5Ac as substrate incubated for 30 mins by HPLC analysis; type: cell-based, HEK-293T
[21] = molecular target: T2, Sialidase-3 (Homo sapiens, UniProt Q9UQ49); assay: Inhibition of human Neu3 expressed in HEK293T cells using GM3 as substrate incubated for 30 mins by HPLC analysis; type: cell-based, HEK-293T
T2 sequence (Q9UQ49 whole entry): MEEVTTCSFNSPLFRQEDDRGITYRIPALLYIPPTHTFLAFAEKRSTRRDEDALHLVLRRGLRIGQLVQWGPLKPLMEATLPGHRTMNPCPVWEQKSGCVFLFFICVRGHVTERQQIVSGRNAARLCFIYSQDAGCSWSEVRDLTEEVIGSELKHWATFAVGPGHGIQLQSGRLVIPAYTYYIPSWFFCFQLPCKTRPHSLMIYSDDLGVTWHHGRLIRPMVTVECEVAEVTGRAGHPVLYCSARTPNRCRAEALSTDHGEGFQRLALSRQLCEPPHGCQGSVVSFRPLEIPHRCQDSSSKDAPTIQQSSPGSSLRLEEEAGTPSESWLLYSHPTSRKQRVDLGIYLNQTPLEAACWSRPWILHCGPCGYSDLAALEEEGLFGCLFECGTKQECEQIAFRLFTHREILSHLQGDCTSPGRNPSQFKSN

[22] = tested on: MDCK; assay: Cytotoxicity against MDCK cells at 0.064 to 1000 uM incubated for 24 hrs by cell counting analysis; type: cell-based, Canis lupus familiaris; settings: dog
[23] = molecular target: T3, Neuraminidase (Influenza A virus, UniProt B4URF0); assay: Inhibition of Influenza A virus (A/duck/Tsukuba/394/2005(H5N3)) neuraminidase N3 activity using 4MU-Neu5Ac as substrate preincubated for 15 mins followed by substrate addition measured after 15 mins by fluorescence analysis
T3 sequence (B4URF0 whole entry): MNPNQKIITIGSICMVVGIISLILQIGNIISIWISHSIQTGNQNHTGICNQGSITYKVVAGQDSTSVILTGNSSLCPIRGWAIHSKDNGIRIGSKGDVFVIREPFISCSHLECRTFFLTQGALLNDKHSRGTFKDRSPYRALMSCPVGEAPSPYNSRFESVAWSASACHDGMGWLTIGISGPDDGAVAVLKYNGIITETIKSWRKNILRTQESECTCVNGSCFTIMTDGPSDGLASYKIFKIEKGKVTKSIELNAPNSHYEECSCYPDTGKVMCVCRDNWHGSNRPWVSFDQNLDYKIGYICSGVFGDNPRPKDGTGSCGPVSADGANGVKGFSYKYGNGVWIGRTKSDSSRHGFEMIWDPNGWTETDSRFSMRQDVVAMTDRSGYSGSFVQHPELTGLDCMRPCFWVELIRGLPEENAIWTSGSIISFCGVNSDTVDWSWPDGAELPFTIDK

[24] = molecular target: T3, Neuraminidase; assay: Inhibition of Influenza A virus (A/duck/Tsukuba/28/2005(H6N2)) neuraminidase N2 activity using 4MU-Neu5Ac as substrate preincubated for 15 mins followed by substrate addition measured after 15 mins by fluorescence analysis
[25] = molecular target: T3, Neuraminidase; assay: Inhibition of Influenza A virus (A/duck/Tsukuba/67/2005(H1N1)) neuraminidase N1 activity using 4MU-Neu5Ac as substrate preincubated for 15 mins followed by substrate addition measured after 15 mins by fluorescence analysis

Structure (SMILES) | IC50 [1] | IC50 [2] | IC50 [3] | IC50 [4] | IC50 [5] | IC50 [6] | IC50 [7] | IC50 [8] | IC50 [9] | IC50 [10] | IC50 [11] | IC50 [12] | IC50 [13] | IC50 [14] | IC50 ([15]; Influenza A virus, MDCK) | IC50 [16] | IC50 [17] | Activity [18] | IC50 [20] | IC50 [21] | other results
CCC(CC)OC[C@@H]1CC(C(=O)O)=C[C@H](N)[C@H]1NC(C)=O | 0.00758 µM | 0.07 nM | 0.00087 µM | 0.00085 µM | 3.91 µM | 0.00228 µM | 0.00364 µM | 0.0003 µM | 0.00474 µM | 0.00028 µM | 0.04 nM | 0.0129 µM | 0.0282 µM | 0.00171 µM | 0.00551 µM | 0.005 µM | – | – | – | – | –
CCCCC(=O)NC[C@@H](O)[C@@H](O)[C@@H]1OC(C(=O)O)=C[C@H](NC(=N)N)[C@H]1NC(C)=O.O=C(O)C(F)(F)F | 2.25 µM | 24.7 nM | 1.1 µM | 0.448 µM | 0.337 µM | 5.87 µM | 25.6 µM | 0.136 µM | 5.02 µM | 0.127 µM | 40.2 nM | 5.5 µM | 8.3 µM | 0.39 µM | 47.7 µM | 5.67 µM | > 700 µM | Non-toxic | > 700 µM | > 1000 µM | IC50 [19]: > 700 µM; Activity [22]: Non-toxic
CC(=O)N[C@H]1[C@H]([C@H](O)[C@H](O)CO)OC(C(=O)O)=C[C@@H]1O [NEU5AC2EN] | – | – | – | – | – | – | – | – | – | – | – | – | – | – | – | – | – | – | – | 50 µM | IC50 [23]: 1 µM; IC50 [24]: 1 µM; IC50 [25]: 1 µM
CC(=O)N[C@H]1[C@H]([C@H](O)[C@H](O)CO)OC(C(=O)O)=C[C@@H]1NC(=N)N [ZANAMIVIR] | 0.00273 µM | – | 0.0109 µM | 0.0065 µM | – | 0.0119 µM | 0.0288 µM | – | 0.0584 µM | – | – | 0.065 µM | 0.0156 µM | – | – | 0.00933 µM | – | – | > 1000 µM | – | IC50 ([15]; mdck): 0.0167 µM
CC(=O)N[C@H]1[C@H]([C@H](O)[C@H](O)CNC(=O)C2CC2)OC(C(=O)O)=C[C@@H]1NC(=N)N.O=C(O)C(F)(F)F | 0.049 µM | 1.34 nM | 0.0248 µM | 0.0118 µM | 0.106 µM | 0.0382 µM | 0.0293 µM | 0.00604 µM | 0.276 µM | 0.00486 µM | 1.27 nM | 0.3 µM | 0.396 µM | 0.0276 µM | 0.163 µM | 0.197 µM | > 1000 µM | Non-toxic | > 1000 µM | > 1000 µM | IC50 [19]: > 1000 µM; Activity [22]: Non-toxic
